The values below come from patent EP0114577A1, “New pharmaceutical composition” (MAGIS FARMACEUTICI S.p.A., priority 1983, dated 1984).

The nature of the series: Serum levels of radioactivity after administration of 14C-CDPC (liposomal suspension vs aqueous solution) to rats. As to conditions: rat, in vivo, 200 mg/kg. An excerpt:
Surprising results which are obtained orally administering carried-by-liposomes CDPC instead of utilizing hitherto known pharmaceutical compositions for oral administration are confirmed by data obtained by carrying out tests hereinbelow described. During the tests as pharmaceutical composition containing carried-by-liposomes CDPC, CDPC carried by means of a liposome having purified phosphatidylcholine from soybean as hydrophobic phase was utilized; said pharmaceutical composition will be called hereinafter Lip. CDPC for the sake of brevity. Moreover, during the hereinbelow describ ed tests, a marked CDPC was utilized having an atom of ^14C introduced into the methyl group of the cholinic side of the molecule. The radioactivity resulted to be about 0.1 µ Curie/mg pure CDPC.
The suspension of Lip. CDPC containing ^14C-CDPC, which was obtained as described in Example No. 1, and a ' reference aqueous solution of ^14C-CDPC were administered by gavage to rats of average weight of 200 g at the doses of 200 mg/Kg (referred to pure CDPC).
Blood abstractions were carried out at various intervals of time and, 24 hours after the start of test, the animals were sacrificed. Amounts of absorbed active ingredient were calculated from radioactivity measures on serum; said amounts, as reported in following Tables (1 - 2), were higher on the average in tests carried out employing Lip. CDPC in comparison with controls with pure CDPC in aqueous solution. It is apparent from the analysis of Tables that, in the described experimental conditions, there is a valuable absorption of CDPC after oral administration. The amount of said absorption and pertinent hematic concentrations are remarkably higher when Lip. CDPC, which is object of the present invention, is used: for example at the 6th hour the serum concentration of CDPC for Lip. CDPC was much higher than concentration found for CDPC administered in aqueous solution.

With `C[N+](C)(C)CCOP(=O)(O)OP(=O)([O-])OC[C@H]1O[C@@H](n2ccc(N)nc2=O)[C@H](O)[C@@H]1O` [CDPC, cytidine diphosphate choline ester], the Serum concentration (0 min) was 0 CPM x 10^-3; the Serum concentration (60 min) is 0.3 CPM x 10^-3; the Serum concentration (120 min) was 1 CPM x 10^-3; the Serum concentration (300 min) is 2.6 CPM x 10^-3; the Serum concentration (600 min) is reported as 4 CPM x 10^-3; the Serum concentration (900 min) is recorded as 4 CPM x 10^-3.
